Laboratory results: ChEMBL document CHEMBL3885861, “Open TG-GATES”

Species: Rattus norvegicus
Assay: Open TG-GATES - Regimen: Single
Type: toxicity, organism-based, Sprague-Dawley
Parameters: regimen Single, gender Male, age 6 weeks
Details: in vivo, po, route gavage; for APTT / Bas / Eos / Fbg / Hb / Ht / Lym / MCH / MCHC / MCV / Mono / Neu / PT / Plat / RBC / Ret / WBC: tissue Blood; for KIDNEY_L / KIDNEY_R / KIDNEY_TOTAL: tissue Kidney; for LIVER: tissue Liver; for A/G / ALP / ALT / AST / BUN / CRE / Ca / Cl / DBIL / GLC / IP / K / LDH / Na / PL / RALB / TBIL / TC / TG / TP / gamma-GTP: tissue Plasma
[1] = 50 mg/kg, 3 h, dose level Middle
[2] = 50 mg/kg, 6 h, dose level Middle
[3] = 50 mg/kg, 9 h, dose level Middle
[4] = 50 mg/kg, 24 h, dose level Middle
[5] = 150 mg/kg, 3 h, dose level High
[6] = 150 mg/kg, 6 h, dose level High
[7] = 150 mg/kg, 9 h, dose level High
[8] = 150 mg/kg, 24 h, dose level High

## Nc1nc(N)c2nc(-c3ccccc3)c(N)nc2n1
[1]
  TERMINAL_BW: 214.5 g
  APTT: 16.6 s
  Bas: 0%
  Eos: 0.8%
  Fbg: 295.2 mg/dL
  Hb: 14.3 g/dL
  Ht: 43.1%
  Lym: 77%
  MCH: 21.2 pg
  MCHC: 33.2%
  MCV: 64 fL
  Mono: 3.4%
  Neu: 18.4%
  PT: 13.9 s
  Plat: 121.1 x10_4/uL
  RBC: 673.2 x10_4/ul
  Ret: 7%
  WBC: 86.9 x10_2/uL
  KIDNEY_L: 1 g
  KIDNEY_R: 1 g
  KIDNEY_TOTAL: 1.9 g
  LIVER: 9.5 g
  A/G: 0.9
  ALP: 1490.4 IU/L
  ALT: 42.4 IU/L
  AST: 73.2 IU/L
  BUN: 12.2 mg/dL
  CRE: 0.2 mg/dL
  Ca: 11 mg/dL
  Cl: 105.2 meq/L
  DBIL: 0.006 mg/dL
  GLC: 165 mg/dL
  IP: 8.7 mg/dL
  K: 4.7 meq/L
  LDH: 59.4 IU/L
  Na: 141.4 meq/L
  PL: 160.8 mg/dL
  RALB: 2.7 g/dL
  TBIL: 0.062 mg/dL
  TC: 90.6 mg/dL
  TG: 56.2 mg/dL
  TP: 5.7 g/dL
  gamma-GTP: 1.4 IU/L
[2]
  TERMINAL_BW: 207.3 g
  APTT: 16.9 s
  Bas: 0%
  Eos: 1%
  Fbg: 337 mg/dL
  Hb: 14.3 g/dL
  Ht: 43.5%
  Lym: 69.8%
  MCH: 20.9 pg
  MCHC: 32.9%
  MCV: 63.5 fL
  Mono: 2.2%
  Neu: 27%
  PT: 14.1 s
  Plat: 124.3 x10_4/uL
  RBC: 685.4 x10_4/ul
  Ret: 7.5%
  WBC: 81.3 x10_2/uL
  KIDNEY_L: 1 g
  KIDNEY_R: 1 g
  KIDNEY_TOTAL: 1.9 g
  LIVER: 9 g
  A/G: 1
  ALP: 1195.2 IU/L
  ALT: 35.2 IU/L
  AST: 72.4 IU/L
  BUN: 11.4 mg/dL
  CRE: 0.2 mg/dL
  Ca: 10.9 mg/dL
  Cl: 106.8 meq/L
  DBIL: 0.01 mg/dL
  GLC: 167.6 mg/dL
  IP: 9.1 mg/dL
  K: 5 meq/L
  LDH: 62.6 IU/L
  Na: 142.4 meq/L
  PL: 149.4 mg/dL
  RALB: 2.8 g/dL
  TBIL: 0.06 mg/dL
  TC: 81.2 mg/dL
  TG: 54 mg/dL
  TP: 5.6 g/dL
  gamma-GTP: 1 IU/L
[3]
  TERMINAL_BW: 208.4 g
  APTT: 18 s
  Bas: 0%
  Eos: 1%
  Fbg: 310.4 mg/dL
  Hb: 14.1 g/dL
  Ht: 42.6%
  Lym: 70.2%
  MCH: 20.9 pg
  MCHC: 33.1%
  MCV: 63 fL
  Mono: 2%
  Neu: 26%
  PT: 13.9 s
  Plat: 116.9 x10_4/uL
  RBC: 677 x10_4/ul
  Ret: 7.4%
  WBC: 88.1 x10_2/uL
  KIDNEY_L: 1 g
  KIDNEY_R: 1 g
  KIDNEY_TOTAL: 2 g
  LIVER: 8.5 g
  A/G: 0.9
  ALP: 1205.8 IU/L
  ALT: 37 IU/L
  AST: 72 IU/L
  BUN: 11.4 mg/dL
  CRE: 0.2 mg/dL
  Ca: 10.8 mg/dL
  Cl: 105.8 meq/L
  DBIL: 0.008 mg/dL
  GLC: 161.8 mg/dL
  IP: 10.6 mg/dL
  K: 4.6 meq/L
  LDH: 48.2 IU/L
  Na: 142.6 meq/L
  PL: 133.6 mg/dL
  RALB: 2.7 g/dL
  TBIL: 0.056 mg/dL
  TC: 74.2 mg/dL
  TG: 37.4 mg/dL
  TP: 5.6 g/dL
  gamma-GTP: 1.2 IU/L
[4]
  TERMINAL_BW: 227.4 g
  APTT: 16.3 s
  Bas: 0%
  Eos: 1%
  Fbg: 314.2 mg/dL
  Hb: 14.1 g/dL
  Ht: 42%
  Lym: 79.8%
  MCH: 22 pg
  MCHC: 33.5%
  MCV: 65.5 fL
  Mono: 2.4%
  Neu: 16.6%
  PT: 13.9 s
  Plat: 130 x10_4/uL
  RBC: 642 x10_4/ul
  Ret: 7.4%
  WBC: 86.7 x10_2/uL
  KIDNEY_L: 1 g
  KIDNEY_R: 1 g
  KIDNEY_TOTAL: 2 g
  LIVER: 10.9 g
  A/G: 0.9
  ALP: 1815 IU/L
  ALT: 47 IU/L
  AST: 67.4 IU/L
  BUN: 16.2 mg/dL
  CRE: 0.2 mg/dL
  Ca: 11.3 mg/dL
  Cl: 105.8 meq/L
  DBIL: 0.01 mg/dL
  GLC: 179.8 mg/dL
  IP: 8.2 mg/dL
  K: 4 meq/L
  LDH: 60.6 IU/L
  Na: 144.2 meq/L
  PL: 155.4 mg/dL
  RALB: 2.7 g/dL
  TBIL: 0.04 mg/dL
  TC: 81 mg/dL
  TG: 92 mg/dL
  TP: 5.5 g/dL
  gamma-GTP: 1 IU/L
[5]
  TERMINAL_BW: 213.5 g
  APTT: 17.4 s
  Bas: 0.4%
  Eos: 0.8%
  Fbg: 303.6 mg/dL
  Hb: 14.2 g/dL
  Ht: 42.4%
  Lym: 77.2%
  MCH: 21.3 pg
  MCHC: 33.4%
  MCV: 63.7 fL
  Mono: 3.2%
  Neu: 17.6%
  PT: 14 s
  Plat: 128.5 x10_4/uL
  RBC: 666 x10_4/ul
  Ret: 7.5%
  WBC: 118.9 x10_2/uL
  KIDNEY_L: 1 g
  KIDNEY_R: 1 g
  KIDNEY_TOTAL: 2 g
  LIVER: 9.5 g
  A/G: 1
  ALP: 1286.4 IU/L
  ALT: 36.6 IU/L
  AST: 71 IU/L
  BUN: 12.8 mg/dL
  CRE: 0.2 mg/dL
  Ca: 10.8 mg/dL
  Cl: 105.8 meq/L
  DBIL: 0.01 mg/dL
  GLC: 166.4 mg/dL
  IP: 8.6 mg/dL
  K: 5.2 meq/L
  LDH: 56.2 IU/L
  Na: 141 meq/L
  PL: 142.6 mg/dL
  RALB: 2.7 g/dL
  TBIL: 0.06 mg/dL
  TC: 77.6 mg/dL
  TG: 67.2 mg/dL
  TP: 5.5 g/dL
  gamma-GTP: 1 IU/L
[6]
  TERMINAL_BW: 206.9 g
  APTT: 17.1 s
  Bas: 0%
  Eos: 1%
  Fbg: 349 mg/dL
  Hb: 14.4 g/dL
  Ht: 43.7%
  Lym: 74.4%
  MCH: 20.9 pg
  MCHC: 33%
  MCV: 63.3 fL
  Mono: 2.8%
  Neu: 20.8%
  PT: 13.9 s
  Plat: 123.5 x10_4/uL
  RBC: 690.6 x10_4/ul
  Ret: 7.5%
  WBC: 94.4 x10_2/uL
  KIDNEY_L: 1 g
  KIDNEY_R: 1 g
  KIDNEY_TOTAL: 1.9 g
  LIVER: 9.1 g
  A/G: 1
  ALP: 1417.8 IU/L
  ALT: 37.8 IU/L
  AST: 76.6 IU/L
  BUN: 11.8 mg/dL
  CRE: 0.2 mg/dL
  Ca: 10.9 mg/dL
  Cl: 105.8 meq/L
  DBIL: 0.01 mg/dL
  GLC: 169.6 mg/dL
  IP: 9.4 mg/dL
  K: 5.3 meq/L
  LDH: 65.2 IU/L
  Na: 140 meq/L
  PL: 150.6 mg/dL
  RALB: 2.8 g/dL
  TBIL: 0.058 mg/dL
  TC: 80.8 mg/dL
  TG: 55.6 mg/dL
  TP: 5.8 g/dL
  gamma-GTP: 1 IU/L
[7]
  TERMINAL_BW: 205.8 g
  APTT: 17.3 s
  Bas: 0.2%
  Eos: 1%
  Fbg: 347 mg/dL
  Hb: 14.4 g/dL
  Ht: 43.5%
  Lym: 71.4%
  MCH: 20.9 pg
  MCHC: 33.1%
  MCV: 63.1 fL
  Mono: 2.2%
  Neu: 25%
  PT: 13.9 s
  Plat: 118.6 x10_4/uL
  RBC: 689.4 x10_4/ul
  Ret: 7.6%
  WBC: 77.8 x10_2/uL
  KIDNEY_L: 1 g
  KIDNEY_R: 1 g
  KIDNEY_TOTAL: 2 g
  LIVER: 8.3 g
  A/G: 1
  ALP: 1443.6 IU/L
  ALT: 35.2 IU/L
  AST: 73.4 IU/L
  BUN: 12.6 mg/dL
  CRE: 0.2 mg/dL
  Ca: 11.1 mg/dL
  Cl: 105.4 meq/L
  DBIL: 0.01 mg/dL
  GLC: 165.2 mg/dL
  IP: 10.6 mg/dL
  K: 5 meq/L
  LDH: 57.8 IU/L
  Na: 141.4 meq/L
  PL: 139 mg/dL
  RALB: 2.9 g/dL
  TBIL: 0.066 mg/dL
  TC: 79.4 mg/dL
  TG: 30.2 mg/dL
  TP: 5.9 g/dL
  gamma-GTP: 1.2 IU/L
[8]
  TERMINAL_BW: 222.9 g
  APTT: 17.6 s
  Bas: 0.2%
  Eos: 0.8%
  Fbg: 366.6 mg/dL
  Hb: 14.4 g/dL
  Ht: 42.7%
  Lym: 80.8%
  MCH: 21.7 pg
  MCHC: 33.7%
  MCV: 64.4 fL
  Mono: 2.4%
  Neu: 15.4%
  PT: 13.7 s
  Plat: 121.5 x10_4/uL
  RBC: 662.8 x10_4/ul
  Ret: 6.2%
  WBC: 84.4 x10_2/uL
  KIDNEY_L: 1 g
  KIDNEY_R: 1 g
  KIDNEY_TOTAL: 2 g
  LIVER: 10.2 g
  A/G: 0.9
  ALP: 1697.4 IU/L
  ALT: 43 IU/L
  AST: 67.4 IU/L
  BUN: 18 mg/dL
  CRE: 0.2 mg/dL
  Ca: 11.2 mg/dL
  Cl: 106.2 meq/L
  DBIL: 0.01 mg/dL
  GLC: 175.4 mg/dL
  IP: 8.4 mg/dL
  K: 4.4 meq/L
  LDH: 66.6 IU/L
  Na: 143.8 meq/L
  PL: 158 mg/dL
  RALB: 2.7 g/dL
  TBIL: 0.038 mg/dL
  TC: 85.2 mg/dL
  TG: 96.6 mg/dL
  TP: 5.6 g/dL
  gamma-GTP: 1 IU/L
